Results published in article PMC5754397, “Population pharmacokinetics of nintedanib, an inhibitor of tyrosine kinases, in patients with non-small cell lung cancer or idiopathic pulmonary fibrosis” (Cancer Chemotherapy and Pharmacology, 2017).

Columns and labels:
[1] = set-up: method as in ref 34 = [34]; 34. Boehringer Ingelheim (2015) Pharmacokinetics, safety and tolerability of nintedanib single oral dose in male and female patients with different degrees of hepatic impairment (Child-Pugh classifica); conditions: Child–Pugh classification, subjects with liver cirrhosis; cited from earlier work
[2] = set-up: method as in PMID 21204634; conditions: cited from earlier work
[3] = system: P-glycoprotein (P-gp); set-up: method as in ref 13, 21, 22 = [13]; 13. Boehringer Ingelheim (2017) OFEV® (nintedanib) capsules, for oral use; Prescribing information, revised: 08/2017. http://docs.boehringer-ingelheim.com/Prescribing%20Information/PIs/Ofev/ofev.pdf . || [21]; 21. Boehringer Ingelheim (2013) Relative bioavailability of nintedanib given alone and in combination with ketoconazole at steady state in healthy male volunteers (an open-label, randomised, two-way c || [22]; 22. Boehringer Ingelheim (2013) Relative bioavailability of a single oral dose of nintedanib given alone and in combination with multiple oral doses of rifampicin in healthy male volunteers (an open-l); conditions: cited from earlier work
[4] = clinical; conditions: human, in vivo
Description: An overview of these studies is provided in Online Resource Table S1. […] Treatment continued until disease progression or intolerable toxicity. […] Treatment cycles were continued until disease progression or intolerable toxicity. […] In all four trials, dose reductions and interruptions were allowed to manage adverse events. All studies were conducted in accordance with the Declaration of Helsinki and with approval of the local ethics committees. Written informed consent was obtained from all patients before study entry. Blood sampling schema for measurement of nintedanib plasma concentrations varied. For all trials, at least two pre-dose and two post-dose blood samples were scheduled during treatment (see Online Resource Table S1). In addition, more extensive sampling was performed in the two Phase II trials. Nintedanib and BIBF 1202 plasma concentrations were analyzed by validated liquid chromatography-mass spectrometry (HPLC-MS/MS) methods. […] The population pharmacokinetic analysis was performed using non-linear mixed-effects modeling techniques (NONMEM, version VI 2.0, ICON Development Solutions, Ellicott City, Maryland, USA). The first-order conditional estimation algorithm with interaction was used. Data processing, diagnostic plots, and calculation of descriptive statistics were performed using R version 2.12.1 (http://www.rproject.org) and SAS version 9.2 (SAS Institute Inc, Cary, NC, USA). Bootstrap analysis was performed using Perl-speaks-NONMEM, version 3.5.3 [24, 25]. A sequential approach was used for population pharmacokinetic model development. […] Inter-individual variability (IIV, η) and inter-occasion variability (IOV, κ) were modeled using exponential random effect models. For testing IOV, each visit was defined as one occasion. […] Model selection was guided by change in objective function values (OFV), identifiability of parameters and precision of parameter estimates, correlation between the estimates of fixed-effect parameters, numerical stability, ability to obtain a successful COVARIANCE step, and visual inspection of basic goodness-of-fit plots. The effects of intrinsic patient factors (e.g., gender, age, body weight, ethnicity, laboratory values, and NSCLC histology) and extrinsic factors (e.g., smoking history and alcohol consumption) on pharmacokinetic parameters of nintedanib were evaluated by applying a stepwise forward inclusion/backward elimination approach. Combinations of covariates and model parameters to be tested were pre-specified based on prior knowledge, physiological plausibility, or general clinical interest (see Online Resource Table S2). Potential effects of patient population (NSCLC versus IPF) or treatment regimen (monotherapy versus combination therapy with docetaxel or pemetrexed) could not be distinguished from trials effects, and were, therefore, not re-evaluated during covariate analysis. To assess the effect of hepatic impairment on apparent total plasma clearance (CL/F) and relative bioavailability (F1), alanine transaminase (ALT), aspartate transaminase (AST), and total bilirubin (BIL) were tested individually and in combination using an adapted liver dysfunction group (LDF) composite developed for organ dysfunction studies by the Organ Dysfunction Working Group of the National Cancer Institute. In this classification, hepatic dysfunction is classified as mild (subdivided into two subgroups), moderate, or severe according to ALT, AST, and BIL levels relative to the upper limit of normal (ULN) (see Table 1). This categorization was preferred over the classical Child-Pugh classification (based on assessments of BIL, albumin, prothrombin time, encephalopathy, and ascites) commonly used to assess surgical risk in cirrhotic patients, as it has potential disadvantages for use in oncology patients. Creatinine clearance (CLCR) estimated by the Cockcroft-Gault equation [31] was used as surrogate for renal function. […]

[5] = cited from earlier work
[6] = system: idiopathic pulmonary fibrosis (IPF); set-up: method as in PMID 21992121, PMID 24836310; conditions: patients with IPF, 52-week treatment period; cited from earlier work

- ALAG [4]: 0.470 (–) h
- CL/F (θCL) [4]: 875 (–) L/h
- F1 higher in NSCLC phase II and LUME-Lung 2 trials than in LUME-Lung 1 and IPF phase II trials [4]: 30%
- V2/F (θV2) [4]: 617 (–) L
- V2 when applying non-flip-flop kinetics in the final model [4]: 10,700 L
- Vd/F [4]: 465 L
- absorption-rate constant, Phase II trials versus Phase III trials [4]: 2 fold
- change in exposure by any individual covariate at extreme values relative to a typical patient [4]: ≤ 33%
- covariate effect on F1, θAge [4]: 0.00942 (–)
- difference in nintedanib pharmacokinetics for Black patients, alcohol consumption or UGT1A1 polymorphism status [4]: no substantial difference
- dose linearity [4]: No major deviation from dose linearity
- impact of gender, patient population, NSCLC histology, therapy regimen, ECOG status, liver metastases, mild or moderate renal impairment, LDH on nintedanib pharmacokinetics [4]: no statistically significant impact
- increase of F1, mild 1 liver dysfunction category [4]: 8%
- increase of F1, mild 2 liver dysfunction category [4]: 13%
- ka (θka) [4]: 0.0391 (–) h^-1
- ka (θka), first-order absorption-rate constant [4]: 0.0376 (7.77) h^−1
- ka higher in phase II NSCLC and IPF trials than in the two NSCLC Phase III trials [4]: 120%
- ka when applying non-flip-flop kinetics in the final model [4]: 1.64 h⁻¹
- ka, absorption rate of a typical patient [4]: 0.0827 h⁻¹
- lag time [4]: 25 min
- percentage change in AUCτ,ss: Chinese/Taiwanese/Indian [4]: ↑33%
- percentage change in AUCτ,ss: Korean [4]: ↓22%
- percentage change in AUCτ,ss: age 45 years (5th percentile) [4]: ↓16%
- percentage change in AUCτ,ss: age 76 years (95th percentile) [4]: ↑13%
- percentage change in AUCτ,ss: current smoker [4]: Current smoker: ↓21%
- ratios of AUCτ,ss for each factor other than ethnic origin [4]: 80–125%
- half-life ([4]; absorption half-life): 8.38 h
- half-life ([4]; elimination half-life (population mean)): 0.36 h
SMILES: COC(=O)c1ccc2c(c1)NC(=O)/C2=C(\Nc1ccc(N(C)C(=O)CN2CCN(C)CC2)cc1)c1ccccc1 [nintedanib]
- increase in nintedanib exposure, mild hepatic impairment [1]: ~2 fold
- increase in nintedanib exposure, moderate hepatic impairment [1]: ~8 fold
- eliminated in urine [2]: Less than 1%
- excreted in the feces [2]: about 94 % of the dose
- substrate of P-glycoprotein (P-gp) [3]: substrate
- percentage change in AUCτ,ss: body weight 50 kg (5th percentile) [4]: ↑25%
- percentage change in AUCτ,ss: body weight 100 kg (95th percentile) [4]: ↓19%
- absolute bioavailability [5]: about 5%
- dose proportionality of total and peak systemic exposures [5]: dose-proportional
- geometric mean terminal elimination half-life [5]: 10 to 15 h
- total fraction of nintedanib and its metabolites absorbed ([5]; estimated): 23%
- time of peak plasma concentrations after oral dosing ([5]; patients with solid tumors): 2 to 4 h
- time to steady state ([5]; twice-daily dosing): ≤ 7 days
- rate of decline in forced vital capacity [6]: significant reduction
